The values that follow come from article PMC12952245 (Cancer, 2025).

The term Tmax denotes the time at which the peak concentration occurs. What is called AUC(0-inf) is the area under the concentration-time curve extrapolated to infinity. A low value points to low exposure. One may read the Cmax as the peak of the concentration-time curve. A word on the half-life: it is how long it takes for the measured level to halve.

The subject of series [1] is patients with advanced solid tumors. Nature of the series: Phase 1 safety of berzosertib plus irinotecan: treatment-related adverse events (CTCAE v5.0), DLT, MTD/RP2D. The series is classed as in vivo. On the procedure:
Berzosertib was supplied under a Collaborative Research and Development Agreement among NCI, Vertex Pharmaceuticals, and EMD Serono. Irinotecan was obtained from commercial sources.
Treatment cycles were 28 days long (Supporting Information S1: Figure S1).
A history and physical examination were conducted at baseline and before each cycle. Complete blood counts and serum chemistries were performed at baseline and weekly during C1 and every 2 weeks thereafter. Toxicities were graded using NCI Common Terminology Criteria for Adverse Events (version 5.0) and defined as adverse events that were possibly, probably, or definitely related to treatment. Radiographic evaluation was performed at baseline and every 8 weeks for tumor response based on Response Evaluation Criteria in Solid Tumors (RECIST) version 1.1.
DLs were evaluated using a modified Storer’s up and down design with the plan of enrolling up to 36 evaluable patients during dose escalation (Supporting Information S1: Figure S1).[8] Stage I of the Modified Storer’s up and down design is single patient dose escalation until a DLT is observed. Once a DLT is observed, patients are treated in cohorts of five in stage II of the design. The MTD was defined as the highest DL tested at which ≤20% patients experience dose limiting toxicity (DLT) during C1 of therapy.

Series [2] can be described thus: clinical. To be noted: human, in vivo. The method, then: (§1) Berzosertib plasma protein binding was assessed in vitro using rapid equilibrium dialysis (RED) devices (Thermo Fisher Scientific, Waltham, Massachusetts).
(§2) Plasma pharmacokinetic parameters were derived from the data by noncompartmental methods with WinNonlin (Certara). Statistical analyses for pharmacokinetic parameter values were performed using SPSS 27.0 for Windows (SPSS Inc, Chicago, Illinois).

Series [3] in a line: Berzosertib plasma protein binding in vitro, rapid equilibrium dialysis. It is filed as in vitro ADME. To be noted: human plasma, 300 – 100,000 µg/L tested.
A further series concerns p-Chk1. The note with it: reported value, no reference given; cited from earlier work.
On the set-up of series [4]: method as in PMID 32568634. To be noted: highest dose level 240 mg/m^2 once or twice weekly; cited from earlier work.
Series [5] in a line: clinical. On the procedure: as §1, §2
In series [6] the test system is ATM and H2AX phosphorylation in PBMCs. Description: PBMC DNA damage signaling, quasi-quantitative dual multiplexed immunoblot. The series is classed as in vivo, human. The method, then:
Blood was processed and analysis performed as described.[11]–[13]
Background: In western blotting, separated proteins are transferred to a membrane and probed.

For series [7], the system named is γH2AX, pS343-NBS1, and pS824-KAP1. Description: Tumor DNA damage signaling, multiplex immunofluorescence of paired biopsies. It is filed as in vivo, human. To be noted: 18–22 hours after end of irinotecan infusion (C1D-13), one colon cancer patient; 4% is the assay baseline. An excerpt:
Paired tumor biopsies were collected from patients enrolled in the expansion cohort. […] The staining of FFPE tissue sections used the BOND RX autostainer (Leica Biosystems). For γH2AX and […]-NBS1 analysis, biotin-conjugated γH2AX (clone JBW301; EMD Millipore) and a custom-conjugated […]-NBS1-DIG (clone EP178; Abcam) antibodies were detected with the use of streptavidin labeled with Alexa Fluor 488 and Alexa Fluor 647 custom-conjugated IgG Fraction Monoclonal Mouse Anti-Digoxin antibody, respectively. For […]-KAP1 analysis, anti-[…]-KAP1 antibody (clone EPR5248; Abcam) custom conjugated to dinitrophenol (Molecular Probes, Inc) was detected using Alexa Fluor 488 conjugated anti-dinitrophenyl KLH rabbit polyclonal antibody. In addition, β-catenin antibody custom conjugated to Alexa Fluor 546 was used to define tumor areas in all biomarker analyses. For γH2AX and […]-NBS1 analysis, fluorescent whole slide images were acquired at 20× using Leica's Aperio FL scanner. Images were then analyzed using a custom algorithm build in Definiens Tissue Studio Analysis software (formerly Definiens AG). For […]-KAP1 analysis, whole slide fluorescent images were acquired at 20× using ZEISS Axioscan 7 scanner. Images were analyzed using a custom algorithm in HALO software (Indica Labs).

The mark [8] stands for this setting: D15, irinotecan 180/150 mg/m^2 with berzosertib (N=41), geometric mean (SD).
Setting [9] is: D-14, irinotecan 180 mg/m^2 alone (N=55), geometric mean (SD).
[10] abbreviates: N=39, with/without berzosertib, geometric mean (SD).
Where [11] appears, read: irinotecan 180 mg/m^2 (N=55), D-14 (alone), geometric mean (SD).

As to `CNCc1ccc(-c2cc(-c3nc(-c4ccc(S(=O)(=O)C(C)C)cc4)cnc3N)on2)cc1` [berzosertib], in series [1] (human, in vivo), the “berzosertib exposure (AUC) versus cycle 1 toxicity grade” value was “higher in patients with C1 higher any grade toxicity and higher hematologic grade toxicity”. Also, the “MTD and RP2D, berzosertib dose” value in series [1] (with irinotecan 180 mg/m^2, iv every 2 weeks (DL4)) is on record as 270 mg/m^2. In the series “clinical [2]”, the Cl is recorded as 24.3 (1.30) L/h/m^2, the Cmax/Dose is 4.90 (1.45) µg/L / mg/m^2, the Tmax turned out to be 0.61 h and the Vss is reported as 530 (1.30) L/m^2. In addition, the Vz in “clinical [2]” is 612 (1.31) L/m^2. Moreover, in “clinical [2]” (60 mg/m2), the AUC(0-inf) was determined as 2330 ng·h/mL, the Cl is 25.7 (-) L/h/m^2, the Cmax turned out to be 343 ng/mL and the Cmax/Dose is recorded as 5.72 (-) µg/L / mg/m^2. Further, in the series “clinical [2]” (60 mg/m2), the time of peak concentration (Tmax) amounted to 0.45 h, the Vss was 459 (-) L/m^2 and the half-life is 14.4 h. Further, in “clinical [2]” (120 mg/m2), the AUC(0-inf) was 4190 ng·h/mL, the Cl is 28.7 (1.40) L/h/m^2, the peak level (Cmax) was 535 ng/mL and the Tmax is 0.54 h. Besides, the half-life in “clinical [2]” (120 mg/m2) was 14.1 h. Also, in the series “clinical [2]” (180 mg/m2), the area under the curve AUC(0-inf) was 8550 ng·h/mL, the Cl is 21.1 (1.20) L/h/m^2, the concentration peaked (Cmax) at 1060 ng/mL and the Cmax/Dose is 5.92 (1.44) µg/L / mg/m^2. Also, in “clinical [2]” (180 mg/m2), the Tmax is 0.66 h, the Vss was 422 (1.37) L/m^2 and the half-life is 16.1 h. Moreover, in “clinical [2]” (270 mg/m2), the area under the curve AUC(0-inf) is 11000 ng·h/mL, the Cl was 24.6 (1.30) L/h/m^2, the Cmax came to 1260 ng/mL and the Cmax/Dose is recorded as 4.67 (1.46) µg/L / mg/m^2. For the same molecule, in the series “clinical [2]” (270 mg/m2), the Tmax worked out at 0.61 h, the Vss was 578 (1.24) L/m^2 and the half-life was 18.8 h. Moreover, in the series “clinical [2]” (iv), the half-life is roughly 17 h, the total clearance is 24 L/h/m^2 and the volume of distribution result is given as “approximately 530 L/m^2”. For the same molecule, the “concentration from which the free fraction increased (plasma protein binding)” value in series [3] is given as “approximately 30 μg/mL”. The “human equivalent p-Chk1 IC50” value in the series with p-Chk1 is “approximately 110 ng/mL”. The “dose-limiting toxicities, monotherapy” value in series [4] is given as “no dose-limiting toxicities”.
For `CCc1c2c(nc3ccc(OC(=O)N4CCC(N5CCCCC5)CC4)cc13)-c1cc3c(c(=O)n1C2)COC(=O)[C@]3(O)CC` [irinotecan], in series [1] (with berzosertib 270 mg/m^2, iv every 2 weeks (DL4)), the “MTD and RP2D, irinotecan dose” value was 180 mg/m^2. In the series “clinical [5]” (human, in vivo, 180 mg/m2), this molecule came in with an AUC(0-inf) of 14000 ng·h/mL and a Cmax of 2180 ng/mL. In addition, in series [6] (4 hours 30 minutes, returned to baseline by 24 hours), the “induction of H2AX phosphorylation in PBMCs” value stood at 10 fold. In addition, the “induction of ATM in PBMCs” value in series [6] (irinotecan alone (C1D-14)) was “no induction of ATM”. Further, the “γH2AX and pNBS1 in tumor biopsy” value in series [7] was > 4 % nuclear area positive (NAP).
As for `CCc1c2c(nc3ccc(OC(=O)N4CCC(NCCCCC(=O)O)CC4)cc13)-c1cc3c(c(=O)n1C2)COC(=O)[C@]3(O)CC` [APC], the “APC/ IRI AUC Ratio” value in the series “clinical [5]” (setting [8]) is 0.221 (1.96). The “APC/ IRI AUC Ratio” value in “clinical [5]” (setting [9]) is listed as 0.196 (1.80). In “clinical [5]” (setting [10]), the “APC/ IRI AUC Ratio, D15/D-14” value is 1.09 (1.50). For the same molecule, in the series “clinical [5]” (human, in vivo, 180 mg/m2), the “APC AUC0-inf” value is given as 2.74 (1.92) mg/L•h and the “APC Cmax” value is listed as 201 (1.81) µg/L. Moreover, in the series “clinical [5]” (irinotecan 180 mg/m^2 (N=55), day -14 of cycle 1, geometric mean (SD)), the “APC t½” value is recorded as 12.1 (1.3) h.
`CCc1c2c(nc3ccc(O)cc13)-c1cc3c(c(=O)n1C2)COC(=O)[C@]3(O)CC` [SN38]: in “clinical [5]” (setting [8]), the “SN38/ IRI AUC Ratio” value is 0.0282 (1.70). For the same molecule, the “SN38/ IRI AUC Ratio” value in “clinical [5]” (setting [9]) is 0.0268 (1.56). The “SN38/ IRI AUC Ratio, D15/D-14” value in “clinical [5]” (setting [10]) is recorded as 1.07 (1.48). The “90% CI of the AUC ratio (presence/absence of berzosertib)” value in “clinical [5]” (bioequivalence approach) is “fell within the traditional boundaries of 80%–125%”. Moreover, in the series “clinical [5]” (bioequivalence assessment, lower 90% confidence interval), the “SN38 AUC ratio D15/D-14, L-90%CI” value came to 93.6%. Besides, the “SN38 AUC ratio D15/D-14, Average BE” value in “clinical [5]” (bioequivalence assessment, presence/absence of berzosertib) amounted to 106.6%. For the same molecule, the “SN38 AUC ratio D15/D-14, U-90%CI” value in the series “clinical [5]” (bioequivalence assessment, upper 90% confidence interval) was determined as 121.5%. For the same molecule, in the series “clinical [5]” (setting [11]), the “SN38 AUC0-inf” value is listed as 0.38 (1.8) mg/L•h, the “SN38 Cmax” value is 25.0 (1.78) µg/L and the “SN38 t½” value is given as 19.9 (1.3) h. The “SN38 AUC Ratio D15/D-14” value in the series “clinical [5]” (presence/absence of berzosertib, dose-normalized AUC, geometric mean (SD)) was 1.07 (1.7).
